pIC50: −log10 of the molar value.
Biological target: T1, serotonin 5-HT1 A receptor (Rattus norvegicus, UniProt P19327)
T1 construct: rat hippocampal membrane homogenate; from tissue; host or cells: rat hippocampus (membrane homogenate)
T1 sequence (P19327 1-422): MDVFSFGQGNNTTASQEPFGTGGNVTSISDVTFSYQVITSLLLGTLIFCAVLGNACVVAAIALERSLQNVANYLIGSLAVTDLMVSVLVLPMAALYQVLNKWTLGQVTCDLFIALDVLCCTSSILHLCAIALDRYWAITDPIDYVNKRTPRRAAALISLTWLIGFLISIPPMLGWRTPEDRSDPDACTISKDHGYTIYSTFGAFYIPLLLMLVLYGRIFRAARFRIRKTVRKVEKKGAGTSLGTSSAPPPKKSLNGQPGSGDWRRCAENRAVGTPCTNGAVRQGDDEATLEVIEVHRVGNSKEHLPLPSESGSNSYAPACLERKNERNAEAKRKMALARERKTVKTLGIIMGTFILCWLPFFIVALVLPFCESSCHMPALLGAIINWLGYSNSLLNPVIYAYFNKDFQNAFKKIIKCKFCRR
Test: displacement of [^3 H]8-OHDPAT from the 5-HT1 A serotonin receptors in rat hippocampal membrane homogenate
Format: binding
Description: High affinity for the serotonin 5-HT1 A receptor was established by testing the claimed compound's ability to displace [^3 H]8-OHDPAT (dipropylaminotetralin) from the 5-HT1 A serotonin receptors in rat hippocampal membrane homogenate following the procedure of B. S. Alexander and M. D. Wood, J. Pharm. Pharmacol. 1988, 40, 888-891.

pIC50 | SMILES
8.70 | O=C(N[C@@H](CN1CCN(c2cccc3[nH]ccc23)CC1)c1ccccc1)C1CCCCC1 [Example 1]
7.45 | CC(=O)N[C@@H](CN1CCN(c2cccc3[nH]ccc23)CC1)c1ccccc1 [Example 2]
8.30 | O=C(N[C@@H](CN1CCN(c2cccc3[nH]ccc23)CC1)c1ccccc1)c1ccccc1 [Example 3]
8.08 | O=C(N[C@H](Cc1ccccc1)CN1CCN(c2cccc3[nH]ccc23)CC1)C1CCCCC1 [Example 4, (R)- Cyclohexane Carboxylic Acid 1-Phenylmethyl-2-[1-[4-(4-indolyl)piperazinyl]] ethylamide]
